Data published in patent US10501481B2, “Heterocyclic compounds and their use in preventing or treating bacterial infections” (priority 2015, dated 2019).

Columns and labels:
[1] = target: T1, TEM-1 (Escherichia coli, UniProt P62593); assay: β-lactamase inhibitory activity, nitrocefin hydrolysis; format: biochemical; details: class (A); 30 min pre-incubation; nitrocefin 200 μM
T1 construct: made in house; host or cells: E. coli
Experimental: (§1) Enzyme activity was monitored by spectrophotometric measurement of nitrocefin (NCF-TOKU-E, N005) hydrolysis at 485 nm, at room temperature and in assay buffer A: 100 mM Phosphate pH7, 2% glycerol and 0.1 mg/mL Bovine serum albumin (Sigma, B4287). […] To a transparent polystyrene plate (Corning, 3628) were added in each well 5 μL DMSO or inhibitor dilutions in DMSO and 80 μL enzyme in buffer A. Plates were immediately read at 485 nm in a microplate spectrophotometer (BioTek, PowerWave HT) to enable background subtraction. After 30 min of pre-incubation at room temperature, 15 μL of NCF (200 μM final) were finally added in each well. Final enzyme concentrations were 0.1 nM (TEM-1), 0.075 nM (SHV-1), 0.4 nM (CTX-M-15), 1 nM (KPC-2), 0.2 nM (P99 AmpC), 0.2 nM (CMY-37), 0.4 nM (AmpC P. aeruginosa), 0.2 nM (OXA-1), 1.2 nM (OXA-11), 0.4 nM (OXA-15) and 0.3 nM (OXA-48). After 20 min incubation at room temperature, plates were once again read at 485 nm. Enzyme activity was obtained by subtracting the final signal by the background, and was converted to enzyme inhibition using non inhibited wells. IC50 curves were fitted to a classical Langmuir equilibrium model with Hill slope using XLFIT (IDBS).

[2] = target: T2, SHV-1 (Klebsiella pneumoniae, UniProt P0AD64); assay: as above; format: biochemical
T2 construct: made in house; host or cells: E. coli
Experimental: as §1

[3] = target: T3, CTX-M-15 (Escherichia coli, UniProt Q9EXV5); assay: as above; format: biochemical
T3 construct: made in house; host or cells: E. coli
Experimental: as §1

[4] = target: AmpC P. aeruginosa (Pseudomonas aeruginosa, UniProt P24735); assay: biochemical
Experimental: Enzyme activity was monitored by spectrophotometric measurement of nitrocefin (NCF-TOKU-E, N005) hydrolysis at 485 nm, at room temperature and in assay buffer A: 100 mM Phosphate pH7, 2% glycerol and 0.1 mg/mL Bovine serum albumin (Sigma, B4287). Enzymes were cloned in E. coli expression vector, expressed and purified in house using classical procedures. To a transparent polystyrene plate (Corning, 3628) were added in each well 5 μL DMSO or inhibitor dilutions in DMSO and 80 μL enzyme in buffer A. Plates were immediately read at 485 nm in a microplate spectrophotometer (BioTek, PowerWave HT) to enable background subtraction. After 30 min of pre-incubation at room temperature, 15 μL of NCF (200 μM final) were finally added in each well. Final enzyme concentrations were 0.1 nM (TEM-1), 0.075 nM (SHV-1), 0.4 nM (CTX-M-15), 1 nM (KPC-2), 0.2 nM (P99 AmpC), 0.2 nM (CMY-37), 0.4 nM (AmpC P. aeruginosa), 0.2 nM (OXA-1), 1.2 nM (OXA-11), 0.4 nM (OXA-15) and 0.3 nM (OXA-48). After 20 min incubation at room temperature, plates were once again read at 485 nm. Enzyme activity was obtained by subtracting the final signal by the background, and was converted to enzyme inhibition using non inhibited wells. IC50 curves were fitted to a classical Langmuir equilibrium model with Hill slope using XLFIT (IDBS).

[5] = target: T4, OXA-48 (Klebsiella pneumoniae, UniProt Q6XEC0); assay: β-lactamase inhibitory activity, nitrocefin hydrolysis; format: biochemical
T4 construct: made in house; host or cells: E. coli
Experimental: as §1

[6] = system: K. pneumoniae BAA-1898 (TEM-1, SHV-11, SHV-12, KPC-2); assay: microbe, parasite or virus in culture; format: cell-based; details: for MIC: Klebsiella pneumoniae, BAA1898, read-out: MIC compounds of the invention alone; for MIC of CAZ in combination with compound at 4 μg/mL: strain BAA-1898, compound fixed at 4 μg/mL
[7] = system: P. aeruginosa CIP105250 (OXA-15); assay: MIC broth microdilution, compounds alone; details: Pseudomonas aeruginosa, CIP105250, read-out: MIC compounds of the invention alone
[8] = system: E. coli UFR61O (TEM-1, KPC-2); assay: MIC broth microdilution, alone and synergy with ceftazidime; details: for MIC of CAZ in combination with compound at 4 μg/mL: strain UFR61O, compound fixed at 4 μg/mL
[9] = system: K. pneumoniae 160143 (TEM-1, SHV-1, CTX-M-15, KPC-2, OXA-1); assay: as above; details: for MIC of CAZ in combination with compound at 4 μg/mL: strain 160143, compound fixed at 4 μg/mL
[10] = system: K. pneumoniae UFR68 (TEM-1, SHV-11, CTX-M-15, KPC-3); assay: as above; details: for MIC of CAZ in combination with compound at 4 μg/mL: strain UFR68, compound fixed at 4 μg/mL
[11] = system: E. cloacae P99 (AmpC); assay: as above; details: for MIC: Enterobacter cloacae, read-out: MIC compounds of the invention alone; for MIC of CAZ in combination with compound at 4 μg/mL: strain P99, compound fixed at 4 μg/mL
[12] = system: E. cloacae UFR85 (TEM-1, CTX-M-15, derepressed AmpC); assay: as above; details: for MIC of CAZ in combination with compound at 4 μg/mL: strain UFR85, compound fixed at 4 μg/mL
[13] = system: K. pneumoniae UFR77 (CMY-2); assay: as above; details: for MIC: Klebsiella pneumoniae, read-out: MIC compounds of the invention alone; for MIC of CAZ in combination with compound at 4 μg/mL: strain UFR77, compound fixed at 4 μg/mL
[14] = system: E. coli UFR74 (SHV-1, DHA-1); assay: as above; details: for MIC: Escherichia coli, read-out: MIC compounds of the invention alone; for MIC of CAZ in combination with compound at 4 μg/mL: strain UFR74, compound fixed at 4 μg/mL
[15] = system: E. coli UFR18 (CTX-M-15, OXA-204); assay: as above; details: for MIC: Escherichia coli, read-out: MIC compounds of the invention alone; for MIC of CAZ in combination with compound at 4 μg/mL: strain UFR18, compound fixed at 4 μg/mL
[16] = system: K. pneumoniae 6299 (TEM-1, SHV-11, OXA-163); assay: as above; details: for MIC: Klebsiella pneumoniae, read-out: MIC compounds of the invention alone; for MIC of CAZ in combination with compound at 4 μg/mL: strain 6299, compound fixed at 4 μg/mL
[17] = system: E. coli RGN238 (OXA-1); assay: as above; details: for MIC: Escherichia coli, read-out: MIC compounds of the invention alone; for MIC of CAZ in combination with compound at 4 μg/mL: strain RGN238, compound fixed at 4 μg/mL
[18] = system: K. pneumoniae 200047 (TEM-1, SHV-32, CTX-M-15, OXA-1); assay: as above; details: for MIC: Klebsiella pneumoniae, read-out: MIC compounds of the invention alone; for MIC of CAZ in combination with compound at 4 μg/mL: strain 200047, compound fixed at 4 μg/mL
[19] = system: E. coli 190317 (TEM-1, SHV-12, CTX-M-15, OXA-1); assay: as above; details: for MIC of CAZ in combination with compound at 4 μg/mL: strain 190317, compound fixed at 4 μg/mL
[20] = system: E. coli UFR32 (TEM-1, VEB-1, OXA-10); assay: as above; details: for MIC of CAZ in combination with compound at 4 μg/mL: strain UFR32, compound fixed at 4 μg/mL
[21] = system: E. cloacae UFR38 (CTX-M-15, NDM-1); assay: as above; details: for MIC: Enterobacter cloacae, read-out: MIC compounds of the invention alone; for MIC of CAZ in combination with compound at 4 μg/mL: strain UFR38, compound fixed at 4 μg/mL
[22] = system: C. murliniae 210102 (VIM-4); assay: as above; details: for MIC: read-out: MIC compounds of the invention alone; for MIC of CAZ in combination with compound at 4 μg/mL: strain 210102, compound fixed at 4 μg/mL
[23] = system: P. aeruginosa CIP107051 (TEM-24); assay: as above; details: for MIC: Pseudomonas aeruginosa, CIP107051, read-out: MIC compounds of the invention alone; for MIC of CAZ in combination with compound at 4 μg/mL: strain CIP107051, compound fixed at 4 μg/mL
[24] = Escherichia coli, read-out: MIC compounds of the invention alone
[25] = Klebsiella pneumoniae, read-out: MIC compounds of the invention alone

AmpC P. aeruginosa, sequence (P24735 27-397): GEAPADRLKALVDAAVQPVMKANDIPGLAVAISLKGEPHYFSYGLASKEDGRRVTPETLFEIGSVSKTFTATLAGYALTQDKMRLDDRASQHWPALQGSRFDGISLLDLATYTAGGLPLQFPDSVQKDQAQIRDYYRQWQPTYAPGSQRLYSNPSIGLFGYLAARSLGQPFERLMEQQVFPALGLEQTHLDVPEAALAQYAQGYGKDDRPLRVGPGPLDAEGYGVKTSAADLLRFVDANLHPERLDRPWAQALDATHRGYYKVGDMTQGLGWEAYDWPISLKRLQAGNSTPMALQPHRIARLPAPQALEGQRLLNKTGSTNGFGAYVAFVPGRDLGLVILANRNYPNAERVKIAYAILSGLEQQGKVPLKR
T1 sequence (P62593 24-286 limits assumed): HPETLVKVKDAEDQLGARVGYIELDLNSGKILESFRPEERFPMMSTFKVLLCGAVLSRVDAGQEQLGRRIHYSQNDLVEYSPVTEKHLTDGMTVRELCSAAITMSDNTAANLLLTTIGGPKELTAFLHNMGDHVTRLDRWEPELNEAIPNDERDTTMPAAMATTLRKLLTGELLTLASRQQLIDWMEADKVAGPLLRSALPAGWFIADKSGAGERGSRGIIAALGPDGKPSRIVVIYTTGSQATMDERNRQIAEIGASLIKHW
T2 sequence (P0AD64 22-286): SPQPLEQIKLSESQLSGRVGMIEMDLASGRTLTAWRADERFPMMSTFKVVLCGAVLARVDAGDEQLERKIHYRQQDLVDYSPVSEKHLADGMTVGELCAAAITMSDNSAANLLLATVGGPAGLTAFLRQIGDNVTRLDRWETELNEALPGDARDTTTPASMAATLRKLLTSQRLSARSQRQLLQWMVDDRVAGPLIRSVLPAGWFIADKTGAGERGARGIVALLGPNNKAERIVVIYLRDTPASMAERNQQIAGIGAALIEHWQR
T3 sequence (Q9EXV5 entry or part of it): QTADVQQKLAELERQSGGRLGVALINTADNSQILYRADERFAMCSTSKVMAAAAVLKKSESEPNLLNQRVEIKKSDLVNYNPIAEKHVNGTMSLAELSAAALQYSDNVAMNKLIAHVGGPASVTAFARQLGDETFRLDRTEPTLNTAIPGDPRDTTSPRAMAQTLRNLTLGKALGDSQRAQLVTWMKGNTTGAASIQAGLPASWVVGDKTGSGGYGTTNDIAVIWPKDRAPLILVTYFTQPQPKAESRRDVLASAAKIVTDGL
T4 sequence (Q6XEC0 23-265 limits assumed): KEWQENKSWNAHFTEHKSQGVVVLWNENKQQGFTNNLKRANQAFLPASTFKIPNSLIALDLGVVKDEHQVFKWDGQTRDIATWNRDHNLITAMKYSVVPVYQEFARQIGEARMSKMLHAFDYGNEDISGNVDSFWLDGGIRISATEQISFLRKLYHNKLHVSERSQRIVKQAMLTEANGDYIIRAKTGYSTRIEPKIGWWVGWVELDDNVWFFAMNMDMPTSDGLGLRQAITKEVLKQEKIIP

NCCn1c2c(sc1=O)C1CN(C2)C(=O)N1OS(=O)(=O)[O-].[Na+] (centres unmarked) [Example 4, Sodium and 2,2,2-trifluoroacetate [5-(2-azaniumethyl)-4,9-dioxo-3-thia-5,8,10-triaza-tricyclo[6.2.1.0^2.6]undec-2(6)-en-10-yl] sulfate]
IC50 [1]: 4.6 nM
IC50 [2]: 21 nM
IC50 [3]: 1.3 nM
IC50 [4]: 1200 nM
IC50 [5]: 4.1 nM
MIC [6]: 16 µg/mL
MIC of CAZ in combination with compound at 4 μg/mL [6]: ≤0.125 µg/mL
MIC [7]: 8 µg/mL
MIC [8, 24]: 4 µg/mL
MIC of CAZ in combination with compound at 4 μg/mL [8]: <0.25 µg/mL
MIC of CAZ in combination with compound at 4 μg/mL [9]: ≤0.25 µg/mL
MIC of CAZ in combination with compound at 4 μg/mL [10]: <0.25 µg/mL
MIC [11]: 0.5 µg/mL
MIC of CAZ in combination with compound at 4 μg/mL [11]: <0.25 µg/mL
MIC ([12]; Enterobacter cloacae, read-out: MIC compounds of the invention alone): 2 µg/mL
MIC of CAZ in combination with compound at 4 μg/mL [12]: <0.25 µg/mL
MIC [13]: 16 µg/mL
MIC of CAZ in combination with compound at 4 μg/mL [13]: ≤0.25 µg/mL
MIC [14]: 16 µg/mL
MIC of CAZ in combination with compound at 4 μg/mL [14]: ≤0.25 µg/mL
MIC [15]: 0.5 µg/mL
MIC of CAZ in combination with compound at 4 μg/mL [15]: <0.25 µg/mL
MIC [16]: 32 µg/mL
MIC of CAZ in combination with compound at 4 μg/mL [16]: ≤0.125 µg/mL
MIC [17]: 8 µg/mL
MIC of CAZ in combination with compound at 4 μg/mL [17]: <0.25 µg/mL
MIC [18]: 8 µg/mL
MIC of CAZ in combination with compound at 4 μg/mL [18]: <0.25 µg/mL
MIC [19, 24]: 1 µg/mL
MIC of CAZ in combination with compound at 4 μg/mL [19]: <0.25 µg/mL
MIC [20, 24]: 1 µg/mL
MIC of CAZ in combination with compound at 4 μg/mL [20]: <0.25 µg/mL
MIC [21]: 0.5 µg/mL
MIC of CAZ in combination with compound at 4 μg/mL [21]: <0.25 µg/mL
MIC [22]: 4 µg/mL
MIC of CAZ in combination with compound at 4 μg/mL [22]: <0.25 µg/mL
MIC [23]: 16 µg/mL
MIC of CAZ in combination with compound at 4 μg/mL [23]: 4 µg/mL

O=C1N2Cc3c(sc(=O)n3CCO)C(C2)N1OS(=O)(=O)[O-].[Na+] (centres unmarked) [Example 5, Sodium [5-(2-hydroxyethyl)-4,9-dioxo-3-thia-5,8,10-triaza-tricyclo[6.2.1.0^2.6]undec-2(6)-en-10-yl) sulfate]
IC50 [1]: 1.8 nM
IC50 [2]: 6 nM
IC50 [3]: 0.68 nM
IC50 [4]: 370 nM
IC50 [5]: 0.79 nM
MIC [6]: 8 µg/mL
MIC of CAZ in combination with compound at 4 μg/mL [6]: 4 µg/mL
MIC [7]: > 32 µg/mL
MIC of CAZ in combination with compound at 4 μg/mL [8]: <0.25 µg/mL
MIC [9, 25]: 8 µg/mL
MIC of CAZ in combination with compound at 4 μg/mL [9]: <0.25 µg/mL
MIC [10, 25]: 8 µg/mL
MIC of CAZ in combination with compound at 4 μg/mL [10]: ≤0.25 µg/mL
MIC [11]: 8 µg/mL
MIC of CAZ in combination with compound at 4 μg/mL [11]: 0.25 µg/mL
MIC of CAZ in combination with compound at 4 μg/mL [12]: <0.25 µg/mL
MIC [13]: 4 µg/mL
MIC of CAZ in combination with compound at 4 μg/mL [13]: <0.25 µg/mL
MIC [14]: 4 µg/mL
MIC of CAZ in combination with compound at 4 μg/mL [14]: <0.25 µg/mL
MIC [15]: 2 µg/mL
MIC of CAZ in combination with compound at 4 μg/mL [15]: <0.25 µg/mL
MIC [16]: 8 µg/mL
MIC of CAZ in combination with compound at 4 μg/mL [16]: ≤0.125 µg/mL
MIC [17]: 1 µg/mL
MIC of CAZ in combination with compound at 4 μg/mL [17]: <0.25 µg/mL
MIC [18]: 2 µg/mL
MIC of CAZ in combination with compound at 4 μg/mL [18]: <0.25 µg/mL
MIC of CAZ in combination with compound at 4 μg/mL [19]: <0.25 µg/mL
MIC of CAZ in combination with compound at 4 μg/mL [20]: <0.25 µg/mL
MIC [21]: 2 µg/mL
MIC of CAZ in combination with compound at 4 μg/mL [21]: <0.25 µg/mL
MIC [22]: 8 µg/mL
MIC of CAZ in combination with compound at 4 μg/mL [22]: 64 µg/mL
MIC [23]: > 32 µg/mL
MIC of CAZ in combination with compound at 4 μg/mL [23]: 4 µg/mL
